Paper PMC4266338 (ACS Medicinal Chemistry Letters, 2014)

Experiments:
[1] = tested on: CHOP; experiment: CHO-CHOP-luciferase reporter assay; type: cell-based, Chinese hamster; settings: for UPR CHOP AC50 ± SEM: CHO-CHOP-luciferase cells, averaged from n ≥ 4 experiments
[2] = Mouse pharmacokinetics IV and IP; settings: male CD-1 mice, IV 2 mg/kg single dose
[3] = Hepatic microsome stability, human; type: in vitro ADME; settings: 37°C, after 1 hr
[4] = tested on: Chop knockout murine embryonic fibroblast (MEF) cells; experiment: MEF proliferation assay, Chop knockout; type: cell-based, mouse; settings: concentrations up to 20 μM, 24 h, Figure S1
[5] = Hepatic microsome stability, mouse; type: in vitro ADME; settings: 37°C, after 1 hr
[6] = PAMPA permeability; type: in vitro ADME; settings: donor pH 5.0, 6.2, and 7.4
[7] = tested on: HN6; experiment: OSCC proliferation assay HN6; type: cell-based, human; settings: HN6, 24 h
[8] = tested on: H460/T800; experiment: OSCC proliferation assay H460/T800; type: cell-based, human; settings: H460/T800, 24 h
[9] = tested on: HN30; experiment: OSCC proliferation assay HN30; type: cell-based; settings: Homo sapiens, 24 h, read-out: potency, dose–response proliferation assay
[10] = Chemical stability toward thiol nucleophiles; type: physicochemical; settings: 10 μM in PBS pH 7.4, 1% DMSO, 8 h, room temperature
[11] = Aqueous solubility; type: physicochemical; settings: through a biologically relevant pH range
[12] = tested on: human tumor cell line panel (NCI-60); experiment: NCI-60 human tumor cell line panel; type: cell-based; settings: colon, melanoma, and renal cancer cell lines
[13] = tested on: A253; experiment: OSCC proliferation assay A253; type: cell-based, human; settings: A253, 24 h

Structure (SMILES): O=C(Nc1ccc(S(=O)(=O)N2CCNCC2)cc1)c1ccc([N+](=O)[O-])o1 [Compound 8]
- loss of activity ([1]; CHOP activation relative to hit 3): ~14 fold

Structure (SMILES): O=C(Nc1ccc(S(=O)(=O)N2CCC(O)CC2)cc1)c1ccc([N+](=O)[O-])o1 [Compound 9]
- UPR CHOP AC50 ± SEM [1]: on par with activity observed with hit 3

Structure (SMILES): O=C(Nc1ccc(S(=O)(=O)N2CCC(Cl)CC2)cc1)c1ccc([N+](=O)[O-])o1 [Compound 12]
- IV dose cleared from circulation within [2]: ≤ 30 min
- Hepatic Microsome Stability percent remaining [3]: almost completely metabolized
- effect on Chop-null MEF cells [4]: unaffected
- Hepatic Microsome Stability percent remaining [5]: almost completely metabolized
- PAMPA permeability in words [6]: good permeability
- sensitivity, dose–response proliferation assay [7]: more resistant
- sensitivity, dose–response proliferation assay [8]: more resistant
- EC50 [9]: 9 ± 1.1 µM
- compound remaining with dithiothreitol (DTT) ([10]; 5-fold excess DTT): 100%
- compound remaining with glutathione (GSH) ([10]; 5-fold excess GSH): 100%
- Aqueous stability in PBS and pION buffer [11]: 8.7–9.7 μM
- growth inhibition potency [12]: low micromolar potency
- sensitivity, dose–response proliferation assay [13]: more resistant

Structure (SMILES): O=C(Nc1ccc(S(=O)(=O)N2CCOCC2)cc1)c1ccco1 [Compound 27]
- UPR CHOP AC50 ± SEM [1]: loss of activity

Structure (SMILES): Cc1ccc(C(=O)Nc2ccc(S(=O)(=O)N3CCOCC3)cc2)o1 [Compound 28]
- UPR CHOP AC50 ± SEM [1]: loss of activity

Structure (SMILES): O=C(Nc1ccc(S(=O)(=O)N2CCOCC2)cc1)c1ccc(Br)o1 [Compound 29]
- UPR CHOP AC50 ± SEM [1]: loss of activity

Structure (SMILES): CC1(C)CCN(S(=O)(=O)c2ccc(NC(=O)c3ccc(C(F)(F)F)o3)cc2)CC1 [Compound 30]
- UPR CHOP AC50 ± SEM [1]: loss of activity
